Counter-ions that a name gives are not always drawn.
Experiments:
[1] = target: T1, EP4 (Mus musculus, UniProt P32240); assay: Binding assay using cell expressing the prostanoid receptor subtypes ([3H]-PGE2 competition, CHO membrane fraction); conditions: membrane fraction of CHO cell expressing mouse EP4, Ki=IC50/(1+([C]/Kd))
T1 construct: expressed in transfected cells; host or cells: CHO cells (membrane fraction)
Method: (i) Binding Assay Using Cell Expressing The Prostanoid Receptor Subtypes
The preparation of membrane fraction was carried out according to the method of Sugimoto et al [J. Biol. Chem. 267, 6463–6466 (1992)], using CHO cell expressing prostanoid receptor subtype (mouse EP1, EP2, EP3, EP4 and human IP).
The standard assay mixture containing membrane fraction (0.5 mg/mL), [^3H]-PGE2 in a final volume of 200 μl was incubated for 1 hour at room temperature. The reaction was terminated by addition of 3 mL of ice-cold buffer. The mixture was rapidly filtered through a glass filter (GF/B) under reduced pressure. The radioactivity associated with the filter was measured by liquid scintillation counter.
Kd and Bmax values were determined from Scatchard plots [Ann. N.Y. Acad. Sci. 51, 660(1949)]. Non-specific binding was calculated as the amount bound in the presence of an excess (2.5 μM) of unlabeled PGE2. In the experiment for competition of specific [^3H]-PGE2 binding by the compounds of the present invention, [^3H]-PGE2 was added at a concentration of […] and the compound of the present invention was added at various concentrations. The following buffer was used in all reactions. • Buffer: 10 mM potassium phosphate (pH 6.0), 1 mM EDTA, 10 mM MgCl2, 0.1 M NaCl. • The dissociation constant (Ki) (μM) of each compound was calculated by the following equation. Ki=IC50/(1+([C]/Kd))

[2] = target: T1, EP4; assay: EP4 antagonizing activity assay using the cell expressing the prostanoid receptor subtypes (cAMP production in CHO cells); type: cell-based; conditions: inhibition of cAMP production with 100 nM PGE2 as agonist; CHO cell expressing receptor subtype
Method: (ii) EP4 Antagonizing Activity Assay Using the Cell Expressing the Prostanoid Receptor Subtypes
The preparation of CHO cell expressing prostanoid receptor subtype was carried out according to the method of Nishigaki et al [FEBS lett., 364, 339–341(1995)]. The cells were cultured in 24-well microplates (10^5 cells/well) for two days before experiments. After washing each well with 500 μL of MEM (minimum essential medium), thereto was added 450 μL of assay medium (MEM containing 1 mmol/L IBMX, 1% BSA), and the mixture was incubated for 10 minutes at 37° C. Then PGE2 alone or a combination with a test compound (50 μL) were added, and the mixture was incubated for 10 minutes at 37° C. And reaction was terminated by addition of ice-cold TCA (10% W/V, 500 μL). This reaction mixture was freezed once (−80° C.) and thawed, and cells were harvested using a scraper. After centrifugation (13,000 r.p.m., for 3 minutes), cAMP content was measured using cAMP assay kit. That is, the supernatant (125 μL) was diluted with 500 μL of [^125I]-cAMP assay kit buffer (Amersham), and mixed with 0.5 mol/L tri-n-octylamine/chloroform solution (1 mL) was mixed. After removal of TCA from chloroform layer, cAMP content in the aqueous layer was quantified according to the method of kit manuals. […]

T1 sequence (P32240 whole entry): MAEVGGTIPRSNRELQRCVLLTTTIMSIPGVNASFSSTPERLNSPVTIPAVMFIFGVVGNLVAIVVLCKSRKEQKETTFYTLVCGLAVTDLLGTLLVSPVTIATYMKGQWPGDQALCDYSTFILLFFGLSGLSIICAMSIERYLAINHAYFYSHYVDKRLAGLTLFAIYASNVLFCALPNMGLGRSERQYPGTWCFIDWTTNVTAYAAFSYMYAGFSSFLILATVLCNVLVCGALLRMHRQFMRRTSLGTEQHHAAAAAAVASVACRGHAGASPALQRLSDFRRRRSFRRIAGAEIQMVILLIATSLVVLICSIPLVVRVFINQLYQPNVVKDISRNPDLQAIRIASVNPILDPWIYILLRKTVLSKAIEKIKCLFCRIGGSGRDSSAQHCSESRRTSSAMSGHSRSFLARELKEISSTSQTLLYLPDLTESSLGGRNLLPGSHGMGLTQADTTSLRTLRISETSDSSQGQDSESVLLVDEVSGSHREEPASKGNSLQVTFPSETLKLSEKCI

Compound	Ki [1]	IC50 [2]
CC(C(=O)Nc1ccccc1Cc1ccccc1C(=O)O)c1cccc2ccccc12 (stereo not shown) [Example 2(1), 2-[2-[2-(1-naphthyl)propanoylamino]phenylmethyl]benzoic acid]	2.7 nM	10 nM
CC(C(=O)Nc1ccncc1Cc1ccccc1C(=O)O)c1cccc2ccccc12 (stereo not shown) [Example 2(15), 2-[4-[2-(1-naphthyl)propanoylamino]pyridin-3-ylmethyl]benzoic acid monohydrochloride]	6.5 nM	–
CC(C(=O)Nc1ccccc1Cc1ccccc1C(=O)O)c1ccc(OCc2ccccc2)cc1 (stereo not shown) [Example 4(1), 2-[2-[2-(4-benzyloxyphenyl)propanoylamino]phenylmethyl]benzoic acid]	10.5 nM	–

— patent US7196198B2, “Benzoic acid derivatives, processes for the preparation thereof and pharmaceutical agents comprising the same as active ingredient” (Ono Pharmaceutical Co., Ltd., priority 2000, dated 2007)
